Experimental data reported in patent US20040077611A1, “Triple therapy of angiotensin converting enzyme inhibitor epoxy-steroidal aldosterone antagonist and diuretic or digoxin for treatment of cardiovascular disease” (G.D. Searle & Co., priority 1999, published 2004).
Values after ≈ are worked out from the molar mass of the structure shown. Read-outs that look alike come from different tables or passages of the source.

Assays:
[1] = Dissolution rate of unformulated solid state forms of eplerenone; assay type: physicochemical; details: temperatures below the enantiotropic transition temperature
[2] = Physical stability of solid state forms of eplerenone; assay type: physicochemical; details: temperatures below the enantiotropic transition temperature
[3] = tested on: patients with severe HF (NYHA Class IV); details: cited from earlier work
humans = test: Effects of eplerenone pharmaceutical compositions in humans after oral administration; assay type: in vivo
[4] = Solubility of eplerenone in crystallization solvents; assay type: physicochemical; details: organic crystallization solvent or mixture of solvents, room temperature
[5] = tested on: patients with stable NYHA Class II-IV heart failure; details: human, in vivo
[6] = tested on: patients with stable NYHA Class II-IV heart failure; test: Clinical trial of eplerenone added to ACE inhibitor and loop diuretic in heart failure (Biological Evaluation I); details: for plasma renin activity (PRA): 12 weeks of treatment, FIG. 28
[7] = tested on: patients alive at Day 3 with Killip class >I; details: patients randomized to lisinopril; ACE-I treatment stopped at 42 days; cited from earlier work
[8] = tested on: patients with clinical evidence of HF at any time after an AMI; details: cited from earlier work; for risk reduction in all cause mortality: compared to placebo (p=0.002)
[9] = tested on: patients with impaired ejection fraction post AMI; details: cited from earlier work
[10] = tested on: myocardial fibrosis in animal models; details: cited from earlier work
[11] = tested on: patients with severe HF (NYHA Class III or IV); details: cited from earlier work
[12] = tested on: patients afflicted with congestive heart failure; details: cited from earlier work
[13] = tested on: patients with LV dysfunction 2 to 6 days following MI; details: cited from earlier work
[14] = humans, over about 12 to 24 hours after ingestion of the composition

COC(=O)[C@@H]1CC2=CC(=O)CC[C@]2(C)[C@@]23O[C@@H]2C[C@@]2(C)[C@@H](CC[C@@]24CCC(=O)O4)[C@H]13 [Form H]
dissolution rate relative to unformulated Form L [1]: approximately 30%

COC(=O)[C@@H]1CC2=CC(=O)CC[C@]2(C)[C@@]23O[C@@H]2C[C@@]2(C)[C@@H](CC[C@@]24CCC(=O)O4)[C@H]13 [Form L]
physical stability relative to Form H [2]: greater physical stability

CCOC(=O)[C@H](CCc1ccccc1)N[C@@H](C)C(=O)N1CCC[C@H]1C(=O)O [enalapril]
reduction of mortality at one year ([3]; enalapril plus diuretics compared to placebo plus diuretics): 31%
mortality ([3]; group with baseline aldosterone plasma levels above the median): reduced
mortality ([3]; group with baseline aldosterone plasma levels below the median): no difference from placebo

COC(=O)[C@@H]1CC2=CC(=O)CC[C@]2(C)[C@@]23O[C@@H]2C[C@@]2(C)[C@@H](CC[C@@]24CCC(=O)O4)[C@H]13 [eplerenone, Pregn-4-ene-7,21-dicarboxylic acid, 9,11-epoxy-17-hydroxy-3-oxo-, γ-lactone, methyl ester, (7^α, 11^α, 17^α)-]
average decrease in diasystolic blood pressure (humans; [14]): at least 5%
average increase in blood serum aldosterone concentrations (humans; [14]): at least 50%
average increase in blood serum renin concentration (humans; [14]): at least 10%
urinary log10 (sodium/potassium) ratio (humans; [14]): increase
efficacy of the required daily dosage, once-a-day relative to twice-a-day administration (humans; in vivo): does not appear to materially differ
solubility [4]: 5 to 200 mg/mL (≈ 12.1 to 483 mM)
testosterone levels [5]: lack of effect
plasma renin activity (PRA) [6]: significantly elevated
reduction in BNP ([6]; eplerenone at 25 mg and 100 mg, all patients, FIG. 29): highly significant
urinary aldosterone excretion, increase from baseline ([6]; eplerenone doses of 50 and 100 mg, 12 week visit): Greater increases

NCCCC[C@H](N[C@@H](CCc1ccccc1)C(=O)O)C(=O)N1CCC[C@H]1C(=O)O [lisinopril]
first-year mortality [7]: 22%

CCOC(=O)[C@H](CCc1ccccc1)N[C@@H](C)C(=O)N1[C@H](C(=O)O)C[C@@H]2CCC[C@@H]21 [ramipril]
risk reduction in all cause mortality ([8]; AIRE): 27%
reduction in the risk of developing severe resistant HF ([8]; AIRE, compared to placebo (p=0.017)): 23%
risk reduction in all cause mortality ([8]; AIREX long-term (three year) follow-up): 36%
ventricular dilatation and systolic dysfunction [9]: prevented ventricular dilatation and further decline of systolic dysfunction

CC(=O)S[C@@H]1CC2=CC(=O)CC[C@]2(C)[C@H]2CC[C@@]3(C)[C@@H](CC[C@@]34CCC(=O)O4)[C@H]12 [spironolactone]
ventricular dilatation and systolic dysfunction [9]: prevented ventricular dilatation and further decline of systolic dysfunction
myocardial fibrosis ([10]; Klug et al): prevents myocardial fibrosis
fibrosis ([10]; irrespective of the development of left ventricular hypertrophy and the presence of hypertension, Brilla et al): prevent fibrosis
reduction in mortality compared to placebo ([11]; as restated): > 30%
median increase in serum potassium concentration ([11]; compared to patients treated with placebo): statistically but not clinically significant
risk reduction for all cause mortality ([11]; spironolactone 25 mg daily added to standard therapy vs standard therapy plus placebo (p<0.001)): 30%
lower frequency of hospitalization for worsening HF ([11]; vs placebo patients): 35%
clinical outcome ([12]; co-therapy of spironolactone and enalapril): Clinical improvements
patients in whom co-therapy was highly effective ([12]; spironolactone coadministered with an ACE inhibitor): 13 of 16
plasma renin activity (PRA) [6]: significantly elevated
testosterone levels ([6]; males): significant increase

CCOC(=O)[C@H](CCc1ccccc1)N[C@@H](C)C(=O)N1[C@H](C(=O)O)C[C@H]2CCCC[C@@H]21 [trandolapril]
relative reduction in the risk of death ([13]; compared to placebo (p=0.001)): 18%
reduction in the risk of progression to severe HF ([13]; compared to placebo (p=0.003)): 29%
